{"source": "patent US6653354B2", "about": "“NMDA antagonist comprising xenon” (priority 1999, dated 2003)", "key": {"NMDA receptors": {"test_system": "NMDA receptors", "format": "cell-based, rat", "settings": "neurons clamped at −60 mV"}, "[1]": {"test_system": "adenylyl cyclase (AC) / alpha-2 adrenergic receptors", "assay": "Adenylyl cyclase activity in neuroblastoma X glioma hybrid cell line (synaptic plasticity paradigm)", "format": "cell-based", "excerpt": "Perturbation of function in the central nervous system can be produced by a change in the strength of neural connections, which is referred to as synaptic plasticity. The present inventors have used the neuroblastoma X glioma hybrid cell line to examine the effect of xenon on synaptic plasticity. In this paradigm the alpha-2 adrenergic receptors, which are pivotally involved in synaptic transmission, inhibit adenylyl cyclase (AC).\nTo examine the inhibitory effect of alpha-2 adrenergic receptors on AC it is first necessary to stimulate the endogenous AC with Prostaglandin E1 (PGE1).\nTo induce “synaptic plasticity” cells are pretreated for 8 hours with norepinephrine; after preparing homogenates from thoroughly washed cells, re-applied norepinephrine loses its inhibitory effect on PGE1-stimulated AC activity."}, "[2]": {"test_system": "c Fos expression in arcuate nucleus of hypothalamus", "assay": "c Fos expression in arcuate nucleus after NMA (inhibition of synaptic plasticity in vivo)", "set-up": "species or system Sprague Dawley female adult rats", "settings": "MK801 0.5 mg/kg s.c. + NMA 100 mg/kg s.c.", "excerpt": "With exposure to NMA neuronal activation is enhanced (E vs A) which is indicative of synaptic plasticity. In the presence of both Xenon (D) and MK 801 (B), synaptic plasticity induced by NMA is inhibited. […] This is sometimes referred to as long term potentiation, an example of synaptic plasticity. […] The attenuation of c Fos expression is a reflection of the inhibition of synaptic plasticity."}, "[3]": {"test_system": "neurons of arcuate nucleus of hypothalamus", "assay": "NMA-induced neuron injury in the arcuate nucleus (neuroprotection in vivo)", "set-up": "species or system Sprague Dawley female adult rats", "settings": "MK801 0.5 mg/kg s.c. + NMA 100 mg/kg s.c.", "method": "It can be seen that NMA caused neuronal degeneration and vacuoulated swelling in the neuropil giving a spongiform appearance in the arcuate nucleus (E). The degenerated neuron has a pyknotic nucleus, which look like “bulls' eyes” because of oedematous swelling of the cytoplasmic compartment.\nRats were injected with NMA (100 mg/kg) sc and sacrificed 4 hours later after exposure to air (“NMA”; n=7) or xenon 75% (“75% xenon+NMA”; n=8). (For comparison the effect of MK801, the NMDA antagonist, is also shown). The arcuate nucleus was removed and sectioned and stained with cresyl violet. Control animals (“PS”; n=6) had neither NMA nor xenon administered. Data are reflected as either the mean of three sections/animal (upper) or the sum (lower) of degenerated neurons in both arcuate nuclei."}, "[4]": {"test_system": "glutamatergic synapses (NMDA receptor slow component, AMPA/KA receptor fast component) of hippocampal neurons", "assay": "Excitatory (glutamatergic) postsynaptic currents, voltage-clamped autaptic hippocampal neurons", "format": "cell-based, rat", "method": "Hippocampal neurons were grown in culture using methods described previously (Segal M M et al, J. Neurophysiol. 1990, 64:1390-1399; Bekkers J M et al, Proc. Natl. Acad. Sci. U.S.A. 1991, 88:7834-7838; Mennerick S et al, J. Neurophysiol. 1995, 73:320-332). Briefly, hippocampi from Sprague Dawley rats (postnatal day 1-3) were dissected, roughly sliced and agitated in a papain-containing solution (20 units ml^−1) for 30 minutes at 37 EC. After washing with enzyme-free solution, the tissue was gently triturated with a fire-polished Pasteur pipette and the cells were plated out at a density of 8-10×10^4 cells ml^−1 and cultured (95% air/5% CO2) at 37° C. Glass coverslips used for culturing the cells were first coated with agarose (0.15% w/v) and then sprayed with a fine mist of poly-D-lysine (PDL) and collagen (0.1 mg ml^−1 PDL and 0.5 mg ml^−1 rat-tail collagen) from a glass micro-atomiser and sterilized by UV exposure. This produced micro-islands of permissive substrate with diameters of between 100 and 1000 μm. At 3-4 days after plating, when the glial cell layer was about 80% confluent, an anti-mitotic agent (cytosine β-D-arabinofuranoside, 5 μM) was added to arrest glial cell proliferation. Neuronal cultures were then allowed to mature for another 4-9 days. We used micro-islands which contained single isolated neurons whose axonal processes and dendritic trees formed multiple self-synapses (autapses). This procedure provided a large population of phenotypically identical monosynaptic connections.\nThe neurons were voltage-clamped using the whole-cell recording technique (Axopatch 200 amplifier, Axon Instruments, Foster City, Calif.). Electrodes were fabricated from borosilicate glass and typically had resistances of between 3-5 MΩ. Series resistance was compensated by 75-90%. Neurons were voltage-clamped at −60 mV, and synaptic responses were stimulated by a 2 ms depolarising pulse to +20 mV. […] For the synaptic measurements, data were sampled at 50 kHz, filtered at 20 kHz (−3 dB, 8-pole Bessel) and stored on a computer. The extracellular recording solution was (mM) 137 NaCl, 5 KCl, 3 CaCl2, 5 HEPES, 10 glucose, 0.001 glycine, 0.0001 strychnine-HCl, titrated to pH 7.3 with NaOH; and the intracellular (pipette) solution was (mM) 140 KCl, 4 NaCl, 0.5 EGTA, 2 MgATP, 10 HEPES, titrated to pH 7.25 with KOH.\nXenon solutions were prepared by first bubbling pure gases (oxygen, nitrogen or xenon) through fine sintered-glass bubblers in 250- or 500-ml Drechsel bottles filled with extracellular recording saline. […] (To minimise oxidization, the neurotoxins and neurotransmitters were excluded from the fully oxygenated saline.) During bubbling, the solutions were continually stirred at room temperature. These solutions were then mixed to achieve the desired final concentrations of the gases. Our control solutions usually contained 80% of the nitrogen solution and 20% of the oxygen solution, while our test solutions usually contained 80% of the xenon solution and 20% of the oxygen solution. Using a Bunsen water/gas partition coefficient of 0.0965 (Smith R A et al, Biochim. Biophys. Acta 1981, 645:327-338) we calculate that our standard test solution contained 3.4 mM xenon. Xenon (research grade, 99.993% pure) was supplied by BOC gases, Guildford, Surrey, UK. In all cases xenon was pre-applied to the neurons for at least 30 seconds before the initiation of synaptic currents.\nIn order to obtain an estimate for the total charge transfer, the EPSCs or IPSCs were numerically integrated."}, "[5]": {"settings": "excitatory currents + 200 μM AP5"}}}
{"smiles": "CN[C@H](CC(=O)O)C(=O)O", "note": "[NMDA, N-methyl-D-aspartate]", "values": [{"measurement": "Hill coefficient", "setting": "NMDA receptors", "result": "1.2±0.1"}, {"measurement": "EC50", "setting": "NMDA receptors; read-out: EC50 for activation of inward current", "result": "24 ± 2", "unit": "µM"}]}
{"smiles": "CCCCC[C@H](O)/C=C/[C@H]1[C@H](O)CC(=O)[C@@H]1CCCCCCC(=O)O", "note": "[PGE1, Prostaglandin E1]", "values": [{"measurement": "effect on adenylyl cyclase (AC) activity", "setting": "[1]; increasing doses of PGE1", "result": "dose-dependently stimulates"}]}
{"smiles": "C[C@]12N[C@H](Cc3ccccc31)c1ccccc12", "note": "[MK801, reference compound]", "values": [{"measurement": "synaptic plasticity induced by NMA (c Fos expression)", "setting": "[2]", "result": "is inhibited"}, {"measurement": "NMA-induced neuronal injury (cresyl fast violet histology)", "setting": "[3]", "result": "prevented NMA-induced injury"}]}
{"smiles": "NC(CCCP(=O)(O)O)C(=O)O", "note": "(racemic) [AP5, DL-2-amino-5-phosphononpentanoate, reference compound]", "values": [{"measurement": "reduction in total charge transfer", "setting": "[4]; 200 μM AP5", "result": 75, "unit": "%"}, {"measurement": "Decay half-time % change (means ± SEM)", "setting": "[4]; [5]", "result": "−24.1 ± 3.3", "unit": "%"}, {"measurement": "Ifast % change (means ± SEM)", "setting": "[4]; [5]", "result": "6.8 ± 6.2", "unit": "%"}, {"measurement": "Ipeak % change (means ± SEM)", "setting": "[4]; [5]", "result": "−16.3 ± 2.1", "unit": "%"}, {"measurement": "Islow % change (means ± SEM)", "setting": "[4]; [5]", "result": "−98.8 ± 0.8", "unit": "%"}, {"measurement": "Qfast % change (means ± SEM)", "setting": "[4]; [5]", "result": "5.3 ± 9.6", "unit": "%"}, {"measurement": "Qslow % change (means ± SEM)", "setting": "[4]; [5]", "result": "−96.0 ± 3.4", "unit": "%"}, {"measurement": "Total charge transfer % change (means ± SEM)", "setting": "[4]; [5]", "result": "−75.2 ± 2.5", "unit": "%"}, {"measurement": "τfast % change (means ± SEM)", "setting": "[4]; [5]", "result": "−5.9 ± 2.3", "unit": "%"}]}
{"smiles": "NC[C@H](O)c1ccc(O)c(O)c1", "note": "[norepinephrine]", "values": [{"measurement": "effect on PGE1-stimulated AC activity", "setting": "[1]; norepinephrine coadministered with PGE1", "result": "dose-dependently inhibited"}]}
